Data on 11 molecules can be found in patent publication US8278465B2, “Coumarin derivative having antitumor activity” (Chugai Seiyaku Kabushiki Kaisha, priority 2006, dated 2012).

Data set [1] deals with human colon cancer cell line HCT116. As to the kind of experiment: Measurement of cell proliferation inhibitory activity (Cell Counting Kit-8). Format: cell-based. To be noted: Homo sapiens, HCT-116, 96 h, HCT116, 4 days incubation, read-out: IC50 (50% proliferation inhibitory concentration). Here is the method: The cell proliferation inhibitory activities of the compounds and salts shown in Tables 1-1, 1-2 and Table 2 were measured as follows, using the human colon cancer cell line HCT116 (American Type Culture Collection, VA, USA). 2000 to 3000 cells per well of the human colon cancer cell line HCT116 was placed in a 96-well culture plate, a predetermined concentration (0.00038 μM, 0.00076 μM, 0.0015 μM, 0.0031 μM, 0.0061 μM, 0.012 μM, 0.024 μM, 0.049 μM, 0.098 μM, 0.195 μM, 0.39 μM, 0.78 μM, 1.56 μM, 3.13 μM, 6.25 μM, 12.5 μM, 25 μM or 50 μM) of the test substance was added thereto, and the mixture was then incubated at 37° C. under 5% CO2 environment for 4 days. On day 4 of incubation, the Cell Counting Kit-8 solution (Dojindo Laboratories) was added, the absorbance (measurement wavelength: 450 nm; reference wavelength: 615 nm) was measured following the protocol attached to the kit, and the 50% proliferation inhibitory concentration (IC50) was calculated.
Background: Tetrazolium dyes change colour on reduction, which living cells bring about.

A short description of data set [2]: Calculation of AUC value (plasma concentration after oral administration). To be noted: BALB/c (nu/nu), mouse, mice, plasma 15 min to 24 h, trapezoidal method, read-out: AUC (area under the blood concentration-time curve). Format: in vivo. The protocol:
The AUC (area under the blood concentration-time curve) values of the compounds and salts shown in Table 2 (only compound 1j-2-16-2 is Na salt; the others are free form) were calculated by administering the test substance to an animal and measuring its concentration in plasma. As the animals, BALB/c (nu/nu) mice (4 to 6 weeks old) procured from Japan Charles River Laboratories were used after a one-week taming period. As for the test substances other than Comp. 1, 5 mg/mL of the substance solution was given at 0.2 mL/10 g body weight (dose of the test substance: 100 mg/kg body weight). As for Comp. 1, 10 mg/mL of the substance solution was given at 0.2 mL/10 g body weight (dose of the test substance: 200 mg/kg body weight). Administration of the substance solution to a mouse was performed forcibly using an oral feeding tube. Blood was collected from the eye pit 15 minutes, 2 hours, 7 hours and 24 hours after administration of the substance solution, using a hematocrit tube treated with heparin. Paraoxon (final concentration: 1 mM) was added to the collected blood as a stabilizer, the mixture was centrifuged at 10000 rpm for 3 minutes, and plasma was separated. The plasma was stored in a freezer set to −80° C. until the time of measurement. The measurement was carried out as follows. 100 μL of distilled water to which the internal standard substance (a structural homolog, concentration adjusted appropriately depending on the compound used) had been added was added to 5 μL of the plasma, and then, a measurement sample was prepared through solid phase extraction processing using an Oasis HLB μElution Plate (Waters), and was analyzed by LC/MS/MS. The plasma concentration was calculated using a calibration curve prepared based on the ratio of standard substance to internal standard substance in control plasma of mice. The AUC was calculated from the data of plasma concentration of the drug by the trapezoidal method using Microsoft Excel 2003 (Microsoft).

Read-outs that look alike come from different tables or passages of the source.

In the case of `CCS(=O)(=O)Nc1cccc(Cc2c(C)c3cc(Cl)c(Oc4ncccn4)cc3oc2=O)c1` [Comp. 1, reference compound], in data set [1] (Table 1-2), the IC50 was found to be 160 nM. In addition, in data set [2] (200 mg/kg body weight (Comp. 1)), the AUC was 97.6 µM·h.

In the case of `CNS(=O)(=O)Nc1cccc(Cc2c(C)c3ccc(OC(=O)N(C)C)cc3oc2=O)n1` [Compound 1j-1-13-2, Dimethylcarbamic acid 4-methyl-3-{6-(methylaminosulfonyl)aminopyridin-2-ylmethyl}-2-oxo-2H-1-benzopyran-7-yl ester], in data set [1] (Table 2), the IC50 was determined as 271 nM. Further, the AUC in data set [2] (in vivo, 100 mg/kg body weight) is 314 µM·h.

`Cc1c(Cc2cccc(NS(N)(=O)=O)c2F)c(=O)oc2cc(Oc3ncccn3)ccc12` [Compound 1j-2-4-1, 3-{2-Fluoro-3-(aminosulfonyl)aminobenzyl}-4-methyl-7-(pyrimidin-2-yloxy)-2-oxo-2H-1-benzopyran]: the IC50 in data set [1] (Table 2) came to 150 nM. Besides, the AUC in data set [2] (100 mg/kg body weight) is 811 µM·h.

Regarding `CNS(=O)(=O)Nc1cccc(Cc2c(C)c3ccc(Oc4ncccn4)cc3oc2=O)c1F` [Compound 1j-2-4-2, 3-{2-Fluoro-3-(methylaminosulfonyl)aminobenzyl}-4-methyl-7-(pyrimidin-2-yloxy)-2-oxo-2H-1-benzopyran], the IC50 in data set [1] (Table 2) turned out to be 44.7 nM. Also, the AUC in data set [2] (100 mg/kg body weight) was 425 µM·h.

`CNS(=O)(=O)Nc1cccc(Cc2c(CF)c3ccc(Oc4ncccn4)cc3oc2=O)c1F` [Compound 1j-2-4-2F, 3-{2-Fluoro-3-(methylaminosulfonyl)aminobenzyl}-4-fluoromethyl-7-(pyrimidin-2-yloxy)-2-oxo-2H-1-benzopyran]: the IC50 in data set [1] (Table 2) was found to be 165 nM. The AUC in data set [2] (100 mg/kg body weight) is 317 µM·h.

Turning to `CNS(=O)(=O)Nc1cccc(Cc2c(C)c3cc(F)c(Oc4ncccn4)cc3oc2=O)c1F` [Compound 1j-2-5-2, 3-{2-Fluoro-3-(methylaminosulfonyl)aminobenzyl}-4-methyl-7-(pyrimidin-2-yloxy)-6-fluoro-2-oxo-2H-1-benzopyran], the IC50 in data set [1] (Table 2) was 75.1 nM. The AUC in data set [2] (100 mg/kg body weight) was 344 µM·h.

Turning to `CNS(=O)(=O)Nc1cc(Cc2c(C)c3cc(Cl)c(Oc4ncccn4)cc3oc2=O)ccn1` [Compound 1j-2-12-2, 3-{2-(Methylaminosulfonyl)aminopyridin-4-ylmethyl}-4-methyl-7-(pyrimidin-2-yloxy)-6-chloro-2-oxo-2H-1-benzopyran], the IC50 in data set [1] (Table 2) was found to be 282 nM. Further, the AUC in data set [2] (100 mg/kg body weight) is 252 µM·h.

In the case of `CNS(=O)(=O)Nc1nccc(Cc2c(C)c3ccc(Oc4ncccn4)cc3oc2=O)c1F` [Compound 1j-2-16-2, 3-{2-(Methylaminosulfonyl)amino-3-fluoropyridin-4-ylmethyl}-4-methyl-7-(pyrimidin-2-yloxy)-2-oxo-2H-1-benzopyran], the IC50 in data set [1] (Table 2) came out at 40.8 nM. Further, the AUC in data set [2] (100 mg/kg body weight) is 3200 µM·h.

Take `CNS(=O)(=O)Nc1cccc(Cc2c(C)c3ccc(Oc4nccs4)cc3oc2=O)c1` [Compound 1j-3-1-2, 3-{3-(Methylaminosulfonyl)aminobenzyl}-4-methyl-7-(thiazol-2-yloxy)-2-oxo-2H-1-benzopyran]: the IC50 in data set [1] (Table 2) is 164 nM. The AUC in data set [2] (100 mg/kg body weight) is 199 µM·h.

`CNS(=O)(=O)Nc1cccc(Cc2c(C)c3cc(C)c(Oc4nccs4)cc3oc2=O)c1` [Compound 1j-3-8-2, 3-{3-(Methylaminosulfonyl)aminobenzyl}-4-methyl-7-(thiazol-2-yloxy)-6-methyl-2-oxo-2H-1-benzopyran]: the IC50 in data set [1] (Table 2) amounted to 96.8 nM. Also, in data set [2] (100 mg/kg body weight), the AUC is 149 µM·h.

`CNC(=O)CS(=O)(=O)Nc1cccc(Cc2c(C)c3ccc(Oc4nccs4)cc3oc2=O)c1F` [Compound 1o-3-4-2, 2-{2-Fluoro-3-[4-methyl-2-oxo-7-(thiazol-2-yloxy)-2H-1-benzopyran-3-ylmethyl]phenylsulfamoyl}-N-methyl-acetamide]: the IC50 in data set [1] (Table 2) was found to be 325 nM. The AUC in data set [2] (100 mg/kg body weight) is 367 µM·h.
